The values below come from ChEMBL document CHEMBL4130363, “Synthesis and pharmacological evaluation of benzamide derivatives as potent and selective sigma-1 protein ligands” (Eur J Med Chem, 2017).

Format in all cases: functional
Test [1] concerns the target 5-hydroxytryptamine receptor 6 (Homo sapiens) (UniProt P50406). Description: Antagonist activity at recombinant human 5-HT6R assessed as inhibition of agonist-induced cAMP induction at 10 uM by HTRF assay. (In general: TR-FRET usually uses a lanthanide donor and a delayed reading to cut background.)
Test [2] deals with D(1A) dopamine receptor (Homo sapiens) (UniProt P21728). Description: Antagonist activity at recombinant human dopamine D1 receptor assessed as inhibition of agonist-induced cAMP induction at 10 uM by HTRF assay.
The target of test [3] is 5-hydroxytryptamine receptor 5A (Homo sapiens) (UniProt P47898). In words: Antagonist activity at recombinant human 5-HT5A assessed as inhibition of agonist-induced effect at 10 uM by aequorin reporter based assay.
For test [4], the target named is Histamine H1 receptor (Homo sapiens) (UniProt P35367). Description: Agonist activity at recombinant human histamine H1 receptor at 10 uM by aequorin reporter based assay relative to agonist.
Test [5] deals with T1, Substance-K receptor (Homo sapiens) (UniProt P21452).
T1 sequence (whole entry): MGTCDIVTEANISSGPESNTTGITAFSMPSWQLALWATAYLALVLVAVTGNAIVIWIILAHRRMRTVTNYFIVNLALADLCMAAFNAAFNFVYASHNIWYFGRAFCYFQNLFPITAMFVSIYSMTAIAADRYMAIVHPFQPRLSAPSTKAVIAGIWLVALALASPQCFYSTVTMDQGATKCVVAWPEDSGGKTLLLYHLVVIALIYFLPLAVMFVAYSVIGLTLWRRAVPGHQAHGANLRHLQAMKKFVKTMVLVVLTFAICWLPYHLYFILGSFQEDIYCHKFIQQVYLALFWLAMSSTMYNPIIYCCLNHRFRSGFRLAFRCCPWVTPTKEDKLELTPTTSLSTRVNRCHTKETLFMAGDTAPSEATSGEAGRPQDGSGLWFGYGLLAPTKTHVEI
In words: Antagonist activity at recombinant human NK2R assessed as inhibition of agonist-induced effect at 10 uM by aequorin reporter based assay.

In test [6] the target is T2, Vasoactive intestinal polypeptide receptor 1 (Homo sapiens) (UniProt P32241).
T2 sequence (whole entry): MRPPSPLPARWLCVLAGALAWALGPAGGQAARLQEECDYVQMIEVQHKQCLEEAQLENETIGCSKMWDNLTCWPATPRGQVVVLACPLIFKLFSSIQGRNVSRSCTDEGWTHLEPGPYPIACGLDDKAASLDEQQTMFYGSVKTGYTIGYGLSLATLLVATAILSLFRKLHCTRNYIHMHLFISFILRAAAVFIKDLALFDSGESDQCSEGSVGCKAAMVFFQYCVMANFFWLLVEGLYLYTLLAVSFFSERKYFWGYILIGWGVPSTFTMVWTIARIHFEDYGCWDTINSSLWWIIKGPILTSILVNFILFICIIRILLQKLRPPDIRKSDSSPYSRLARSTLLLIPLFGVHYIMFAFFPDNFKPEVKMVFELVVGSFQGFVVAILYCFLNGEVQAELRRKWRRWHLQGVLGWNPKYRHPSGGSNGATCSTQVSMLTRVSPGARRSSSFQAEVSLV
In words: Agonist activity at recombinant human VPAC1 receptor at 10 uM by aequorin reporter based assay relative to agonist.

For test [7], the target named is T3, 5-hydroxytryptamine receptor 1A (Homo sapiens) (UniProt P08908).
T3 sequence (whole entry): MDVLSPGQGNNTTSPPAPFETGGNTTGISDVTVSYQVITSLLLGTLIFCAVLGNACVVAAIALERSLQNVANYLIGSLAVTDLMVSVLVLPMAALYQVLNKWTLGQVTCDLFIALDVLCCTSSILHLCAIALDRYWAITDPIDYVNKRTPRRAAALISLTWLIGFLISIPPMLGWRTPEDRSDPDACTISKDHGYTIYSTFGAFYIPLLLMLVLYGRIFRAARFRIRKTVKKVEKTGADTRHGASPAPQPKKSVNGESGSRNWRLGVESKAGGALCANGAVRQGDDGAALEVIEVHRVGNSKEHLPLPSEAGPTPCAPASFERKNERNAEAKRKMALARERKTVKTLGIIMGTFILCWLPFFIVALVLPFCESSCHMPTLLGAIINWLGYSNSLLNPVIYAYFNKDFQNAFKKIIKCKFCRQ
Description: Agonist activity at recombinant human 5-HT1A assessed as induction of cAMP levels at 10 uM by HTRF assay relative to agonist. (cAMP levels reflect the balance of adenylyl cyclase and phosphodiesterase activity.)

Test [8] concerns the target Delta-type opioid receptor (Homo sapiens) (UniProt P41143). Description: Agonist activity at recombinant human delta-type opioid receptor at 10 uM by GTPgamma[35S] binding-based assay relative to agonist. In general terms: Binding of GTPγS marks nucleotide exchange on a G protein.
The target of test [9] is Adenosine receptor A2a (Homo sapiens) (UniProt P29274). In words: Agonist activity at recombinant human adenosine A2A receptor assessed as induction of cAMP levels at 10 uM by HTRF assay relative to agonist.
For test [10], the target named is T4, Muscarinic acetylcholine receptor M2 (Homo sapiens) (UniProt P08172).
T4 sequence (whole entry): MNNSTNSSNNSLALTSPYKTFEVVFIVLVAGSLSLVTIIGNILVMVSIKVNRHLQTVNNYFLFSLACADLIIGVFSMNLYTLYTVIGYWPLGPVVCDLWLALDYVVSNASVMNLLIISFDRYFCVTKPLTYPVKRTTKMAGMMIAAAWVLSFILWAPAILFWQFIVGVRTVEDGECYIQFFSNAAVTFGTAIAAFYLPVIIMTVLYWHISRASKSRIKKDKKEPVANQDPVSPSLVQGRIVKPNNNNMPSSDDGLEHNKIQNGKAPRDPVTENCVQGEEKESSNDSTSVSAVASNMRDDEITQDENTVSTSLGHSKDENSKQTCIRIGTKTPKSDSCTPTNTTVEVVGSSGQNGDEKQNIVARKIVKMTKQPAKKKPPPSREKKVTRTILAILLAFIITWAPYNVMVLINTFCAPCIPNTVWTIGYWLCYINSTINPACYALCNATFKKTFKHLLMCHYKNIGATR
Description: Agonist activity at recombinant human muscarinic M2 receptor at 10 uM by GTPgamma[35S] binding-based assay relative to agonist.

Test [11] addresses 5-hydroxytryptamine receptor 1B (Homo sapiens) (UniProt P28222). Description: Antagonist activity at recombinant human 5-HT1B assessed as inhibition of agonist-induced effect at 10 uM by GTPgamma[35S] binding-based assay.
Test [12] addresses T3, 5-hydroxytryptamine receptor 1A (Homo sapiens). Description: Antagonist activity at recombinant human 5-HT1A assessed as inhibition of agonist-induced cAMP levels at 10 uM by HTRF assay.

Chain of 5-hydroxytryptamine receptor 1B (Homo sapiens) (P28222 whole entry): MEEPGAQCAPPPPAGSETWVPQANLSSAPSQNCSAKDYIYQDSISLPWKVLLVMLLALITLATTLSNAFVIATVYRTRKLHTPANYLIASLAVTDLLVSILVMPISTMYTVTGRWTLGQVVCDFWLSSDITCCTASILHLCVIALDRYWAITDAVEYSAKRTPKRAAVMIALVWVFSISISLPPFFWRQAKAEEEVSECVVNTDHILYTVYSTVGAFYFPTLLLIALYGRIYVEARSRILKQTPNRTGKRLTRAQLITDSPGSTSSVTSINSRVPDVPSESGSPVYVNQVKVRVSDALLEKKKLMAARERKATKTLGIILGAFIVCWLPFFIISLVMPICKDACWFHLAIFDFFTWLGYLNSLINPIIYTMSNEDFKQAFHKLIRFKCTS
Chain of Adenosine receptor A2a (Homo sapiens) (P29274 whole entry): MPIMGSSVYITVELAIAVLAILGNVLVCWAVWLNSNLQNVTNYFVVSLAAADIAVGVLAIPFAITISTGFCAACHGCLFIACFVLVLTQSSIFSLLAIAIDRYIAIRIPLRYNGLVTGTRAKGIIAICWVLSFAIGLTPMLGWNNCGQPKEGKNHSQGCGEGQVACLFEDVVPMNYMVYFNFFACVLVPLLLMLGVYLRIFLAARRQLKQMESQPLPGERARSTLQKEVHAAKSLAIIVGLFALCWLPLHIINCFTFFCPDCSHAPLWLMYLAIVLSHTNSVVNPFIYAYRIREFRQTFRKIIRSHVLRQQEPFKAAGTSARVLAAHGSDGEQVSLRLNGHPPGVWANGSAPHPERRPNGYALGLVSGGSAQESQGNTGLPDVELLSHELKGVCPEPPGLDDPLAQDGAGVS
Chain of D(1A) dopamine receptor (Homo sapiens) (P21728 whole entry): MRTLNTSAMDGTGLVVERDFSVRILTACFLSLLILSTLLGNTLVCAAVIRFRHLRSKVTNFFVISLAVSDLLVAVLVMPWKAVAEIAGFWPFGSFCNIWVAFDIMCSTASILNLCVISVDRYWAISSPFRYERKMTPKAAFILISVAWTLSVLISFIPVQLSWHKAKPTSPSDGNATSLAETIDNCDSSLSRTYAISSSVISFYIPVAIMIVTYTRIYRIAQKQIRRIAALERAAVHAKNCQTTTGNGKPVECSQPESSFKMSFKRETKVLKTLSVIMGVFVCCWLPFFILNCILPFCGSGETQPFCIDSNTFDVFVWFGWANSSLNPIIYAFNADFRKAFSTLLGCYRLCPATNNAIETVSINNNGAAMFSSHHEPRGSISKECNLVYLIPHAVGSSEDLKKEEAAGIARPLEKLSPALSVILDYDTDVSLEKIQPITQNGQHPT
Chain of Delta-type opioid receptor (Homo sapiens) (P41143 whole entry): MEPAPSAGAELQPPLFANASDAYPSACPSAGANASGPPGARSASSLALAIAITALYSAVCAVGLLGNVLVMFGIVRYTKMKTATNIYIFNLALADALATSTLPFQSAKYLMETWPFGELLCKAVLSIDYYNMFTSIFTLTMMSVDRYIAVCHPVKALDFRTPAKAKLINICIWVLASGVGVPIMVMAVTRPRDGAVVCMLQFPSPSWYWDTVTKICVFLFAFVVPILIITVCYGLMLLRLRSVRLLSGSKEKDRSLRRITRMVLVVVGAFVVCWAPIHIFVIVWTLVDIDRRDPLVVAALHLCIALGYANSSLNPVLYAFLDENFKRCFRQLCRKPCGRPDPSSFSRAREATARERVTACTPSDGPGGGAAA
Chain of 5-hydroxytryptamine receptor 5A (Homo sapiens) (P47898 whole entry): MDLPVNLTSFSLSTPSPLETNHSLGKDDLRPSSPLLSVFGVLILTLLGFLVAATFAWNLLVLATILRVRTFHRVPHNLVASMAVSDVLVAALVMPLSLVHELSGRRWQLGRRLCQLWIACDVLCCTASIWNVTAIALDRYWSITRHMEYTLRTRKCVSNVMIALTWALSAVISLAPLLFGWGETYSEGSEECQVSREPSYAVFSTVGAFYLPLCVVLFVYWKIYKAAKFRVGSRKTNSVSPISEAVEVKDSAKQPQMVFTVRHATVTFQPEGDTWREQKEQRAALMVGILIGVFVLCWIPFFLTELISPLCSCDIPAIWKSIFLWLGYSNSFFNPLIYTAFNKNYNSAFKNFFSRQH
Chain of 5-hydroxytryptamine receptor 6 (Homo sapiens) (P50406 whole entry): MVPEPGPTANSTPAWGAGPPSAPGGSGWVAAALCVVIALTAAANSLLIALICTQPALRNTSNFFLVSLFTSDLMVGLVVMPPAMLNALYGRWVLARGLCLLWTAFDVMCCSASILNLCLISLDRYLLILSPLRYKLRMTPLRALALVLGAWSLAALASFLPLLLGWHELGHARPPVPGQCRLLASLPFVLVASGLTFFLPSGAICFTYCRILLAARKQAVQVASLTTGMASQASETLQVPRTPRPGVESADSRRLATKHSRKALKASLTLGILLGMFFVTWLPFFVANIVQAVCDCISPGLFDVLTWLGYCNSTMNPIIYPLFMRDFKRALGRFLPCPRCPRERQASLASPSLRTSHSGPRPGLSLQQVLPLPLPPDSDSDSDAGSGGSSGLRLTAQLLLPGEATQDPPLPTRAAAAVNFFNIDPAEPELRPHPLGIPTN
Chain of Histamine H1 receptor (Homo sapiens) (P35367 whole entry): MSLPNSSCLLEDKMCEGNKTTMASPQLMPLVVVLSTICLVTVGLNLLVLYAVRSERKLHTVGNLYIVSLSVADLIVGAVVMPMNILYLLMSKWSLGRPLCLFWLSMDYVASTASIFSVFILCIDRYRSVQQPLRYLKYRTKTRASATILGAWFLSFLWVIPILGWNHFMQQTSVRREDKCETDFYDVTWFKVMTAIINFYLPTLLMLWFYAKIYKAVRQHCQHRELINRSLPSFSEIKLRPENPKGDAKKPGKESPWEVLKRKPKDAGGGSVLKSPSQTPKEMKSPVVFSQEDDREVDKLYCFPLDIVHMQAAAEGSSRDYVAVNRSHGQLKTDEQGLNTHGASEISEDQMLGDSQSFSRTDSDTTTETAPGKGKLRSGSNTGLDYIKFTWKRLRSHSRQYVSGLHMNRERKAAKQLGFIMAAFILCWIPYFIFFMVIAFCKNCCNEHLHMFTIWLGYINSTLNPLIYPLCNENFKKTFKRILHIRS

Consider `CCCc1ccc(C(=O)NCCCN(C)Cc2ccccc2)cc1`, for which the inhibition in test [1] was 1%; in test [2], 6%; in test [3], 13%; in test [5], 5%; in [11], -8%; in test [12], -6%. The Activity in [4] was 0%; in [6], -1%; in test [7] it was -4%; in [8], 1%; in test [9], -19%; in [10], -9%.

Consider `CN(CCCNC(=O)c1ccc(Cl)cc1)Cc1ccccc1`, for which the inhibition was -6% in [1]; 4% in test [2]; 17% in [3]; 18% in test [5]; 11% in [11]; -1% in test [12]. For the same compound, the Activity in test [4] was 1%; in [6], 0%; in test [7] it was 3%; in [8], 0%; in test [9], -3%; in [10], -9%.

For `CN(CCCNC(=O)c1ccc(Br)cc1)Cc1ccccc1`, the inhibition is -1% in test [1]; 3% in test [2]; 8% in [3]; 7% in test [5]; 0% in test [11]; -5% in test [12]. Further, the Activity is 1% in test [4]; 0% in test [6]; 0% in [7]; 1% in test [8]; -7% in [9]; -3% in test [10].

Take `COc1cccc(C(=O)NCCCN(C)Cc2ccccc2)c1`: the inhibition in test [1] was -1%; in [2] it was 0%; in test [3], 16%; in test [5] it was 19%; in test [11], 13%; in [12] it was 18%. Further, the Activity in [4] was 14%; in test [6], 0%; in test [7], 0%; in [8], -4%; in test [9] it was 5%; in test [10], -1%.

With `CN(CCCNC(=O)c1ccc(C(F)(F)F)cc1)Cc1ccccc1`, the inhibition in [1] stood at 1%; in [2], 9%; in test [3] it was 14%; in [5], 6%; in test [11], 11%; in test [12], 1%. The Activity in [4] is 0%; in test [6] it was 0%; in [7], -5%; in test [8], 3%; in test [9], -22%; in test [10], -9%.

In the case of `CN(CCCNC(=O)c1ccc([N+](=O)[O-])cc1)Cc1ccccc1`, the inhibition in [1] is -4%; in test [2], 3%; in test [3] it was 17%; in test [5], 9%; in test [11], 4%; in [12], -6%. For the same compound, the Activity was 0% in test [4]; -1% in test [6]; -1% in test [7]; -1% in test [8]; -11% in test [9]; -6% in test [10].

For `CN(CCNC(=O)c1ccc(C#N)cc1)Cc1ccccc1`, the inhibition in test [1] was -2%; in test [2] it was 0%; in test [3], 28%; in test [5], 29%; in [11] it was 17%; in test [12], 16%. In addition, the Activity was 0% in [4]; -1% in test [6]; 4% in [7]; -2% in [8]; -8% in test [9]; -3% in test [10].

Regarding `COc1ccc(C(=O)NCCCN(C)Cc2ccccc2)cc1`, the inhibition in test [1] is 0%; in [2], -2%; in test [3] it was 16%; in [5], 22%; in test [11] it was 18%; in [12], 5%. The Activity is 0% in [4]; 0% in test [6]; -2% in test [7]; -6% in test [8]; -13% in [9]; -3% in test [10].

In the case of `CN(CCNC(=O)c1ccc(Cl)cc1)Cc1ccccc1`, the inhibition in test [1] was -3%; in [2], 1%; in test [3], 22%; in test [5] it was 6%; in [11], 1%; in test [12] it was 3%. Further, the Activity was 0% in [4]; -1% in test [6]; 3% in test [7]; 1% in [8]; -22% in test [9]; -5% in [10].

For `CN(CCCNC(=O)c1ccc(Cl)cc1)CCc1ccccc1`, the inhibition amounted to 3% in test [1]; 35% in [2]; 40% in test [3]; 5% in [5]; 65% in [11]; 17% in test [12]. Further, the Activity in [4] is 12%; in test [6] it was 1%; in [7], 32%; in test [8], 0%; in test [9], -6%; in test [10], -10%.

As to `CN(CCCNC(=O)c1cccc(Br)c1)Cc1ccccc1`, the inhibition is -2% in test [1]; 1% in test [2]; 23% in test [3]; 9% in test [5]; 35% in test [11]; 7% in test [12]. The Activity in [4] is 35%; in test [6] it was -1%; in [7], -4%; in [8], -1%; in test [9], -25%; in [10] it was -11%.

Usually inhibition stands for the relative decrease from the control value, in per cent.
